Test [1] addresses T1, Histone-lysine N-methyltransferase NSD2 (Homo sapiens, UniProt O96028).
T1 sequence (O96028 whole entry): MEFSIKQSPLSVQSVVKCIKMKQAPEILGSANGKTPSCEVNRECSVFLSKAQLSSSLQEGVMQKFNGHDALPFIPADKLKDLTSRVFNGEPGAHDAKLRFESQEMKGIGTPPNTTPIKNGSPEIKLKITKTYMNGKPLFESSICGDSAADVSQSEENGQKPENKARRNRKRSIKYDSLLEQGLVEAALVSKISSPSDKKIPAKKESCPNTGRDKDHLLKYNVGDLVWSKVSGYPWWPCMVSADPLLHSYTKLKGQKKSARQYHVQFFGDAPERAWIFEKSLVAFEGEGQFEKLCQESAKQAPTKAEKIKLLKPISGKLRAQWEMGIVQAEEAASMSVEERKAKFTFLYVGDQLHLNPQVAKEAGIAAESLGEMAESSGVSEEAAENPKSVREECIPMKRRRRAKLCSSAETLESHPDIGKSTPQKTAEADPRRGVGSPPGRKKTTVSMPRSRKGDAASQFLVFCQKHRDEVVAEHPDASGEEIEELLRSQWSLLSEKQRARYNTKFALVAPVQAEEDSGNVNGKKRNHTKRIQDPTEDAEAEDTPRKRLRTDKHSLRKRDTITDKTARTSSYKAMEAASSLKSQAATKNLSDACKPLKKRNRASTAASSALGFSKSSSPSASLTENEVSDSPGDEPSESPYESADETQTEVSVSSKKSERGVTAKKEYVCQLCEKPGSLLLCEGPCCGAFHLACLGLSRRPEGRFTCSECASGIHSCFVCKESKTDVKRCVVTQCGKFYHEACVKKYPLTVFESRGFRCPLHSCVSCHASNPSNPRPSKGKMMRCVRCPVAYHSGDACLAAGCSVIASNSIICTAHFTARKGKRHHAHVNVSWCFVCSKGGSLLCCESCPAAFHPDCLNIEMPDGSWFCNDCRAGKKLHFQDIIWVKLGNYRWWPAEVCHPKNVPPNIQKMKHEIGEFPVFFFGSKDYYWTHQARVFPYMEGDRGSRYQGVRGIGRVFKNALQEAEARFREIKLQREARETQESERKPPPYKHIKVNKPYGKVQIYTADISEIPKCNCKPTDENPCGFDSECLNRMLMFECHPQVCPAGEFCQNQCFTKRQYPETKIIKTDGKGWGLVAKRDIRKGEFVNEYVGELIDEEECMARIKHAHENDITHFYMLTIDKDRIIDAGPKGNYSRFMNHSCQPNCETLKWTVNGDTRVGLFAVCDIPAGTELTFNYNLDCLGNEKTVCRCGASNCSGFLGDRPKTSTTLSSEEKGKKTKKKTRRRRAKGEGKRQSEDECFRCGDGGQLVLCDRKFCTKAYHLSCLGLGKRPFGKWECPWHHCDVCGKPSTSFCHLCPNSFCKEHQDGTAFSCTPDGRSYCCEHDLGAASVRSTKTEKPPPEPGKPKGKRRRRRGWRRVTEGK
Format: biochemical.

The subject of a further test is Streptococcus. Briefly: Group A Streptococcus viability loss, dose response, counter-screen for streptokinase expression inhibitor project, luminescence, BacTiterGlo (AID 1915).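 Also: potency for reduction of bacterial viability or growth.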 Format: functional, organism-based. (In general: Counterscreens check selectivity or assay interference.)
For test [2], the system named is Streptococcus sp. 'group A'. Briefly: growth inhibition of control SK(-) GAS strain, dose response, counter-screen for streptokinase expression inhibitor project, luminescence, kanamycin, BacTiterGlo, confirmation (AID 1900). The format is functional, organism-based.
For the next test, the target named is Insulin receptor (Homo sapiens, UniProt P06213). The format is functional.
The target of test [3] is Mitogen-activated protein kinase kinase kinase 20 (Homo sapiens, UniProt Q9NYL2). Format: functional.
In test [4] the target is Calcium/calmodulin-dependent protein kinase type 1 (Homo sapiens, UniProt Q14012). The format is functional.
Test [5] addresses Mitogen-activated protein kinase 1 (Homo sapiens, UniProt P28482). Format: functional.
Test [6] has as its target Tyrosine-protein kinase SYK (Homo sapiens, UniProt P43405). Format: functional.
Test [7] has as its target Fibroblast growth factor receptor 3 (Homo sapiens, UniProt P22607). Format: functional.
Test [8] concerns the target Serine/threonine-protein kinase BRSK1 (Homo sapiens, UniProt Q8TDC3). Format: functional.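 Also: measured within a kinome-wide kinase panel, with the target listed as KIAA1811.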
Test [9] deals with Vascular endothelial growth factor receptor 3 (Homo sapiens, UniProt P35916). The format is functional.
Test [10] concerns the target MAP kinase-activated protein kinase 2 (Homo sapiens, UniProt P49137). Format: functional.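 Also: measured as one member of a kinome-wide kinase panel.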
Test [11] addresses Mitogen-activated protein kinase 13 (Homo sapiens, UniProt O15264). The format is functional.
In test [12] the target is Tyrosine-protein kinase ITK/TSK (Homo sapiens, UniProt Q08881). The format is functional.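 Also: affinity for ITK measured as one member of a broad kinase panel profiling binding across the kinome.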
Test [13] concerns the target Rho-associated protein kinase 2 (Homo sapiens, UniProt O75116). The format is functional.
Test [14] addresses Tyrosine-protein kinase Srms (Homo sapiens, UniProt Q9H3Y6). The format is functional.
Test [15] concerns the target Tyrosine-protein kinase Lyn (Homo sapiens, UniProt P07948). Format: functional.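 Also: lyn as one member of a kinase panel.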
For test [16], the target named is Ribosomal protein S6 kinase alpha-5 (Homo sapiens, UniProt O75582). The format is functional.
For test [17], the target named is Serine/threonine-protein kinase pim-2 (Homo sapiens, UniProt Q9P1W9). The format is functional.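 Also: value comes from a broad kinase panel profiling study in which PIM2 was one of the panel members.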
Test [18] has as its target Proto-oncogene tyrosine-protein kinase ROS (Homo sapiens, UniProt P08922). Format: functional.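 Also: ROS1 tested as one member of a kinome-wide kinase panel.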
Test [19] addresses Protein kinase C delta type (Homo sapiens, UniProt Q05655). The format is functional.
In test [20] the target is Non-receptor tyrosine-protein kinase TYK2 (Homo sapiens, UniProt P29597). Format: functional.
In test [21] the target is Calcium/calmodulin-dependent protein kinase type II subunit gamma (Homo sapiens, UniProt Q13555). Format: functional.
For test [22], the target named is MAP/microtubule affinity-regulating kinase 3 (Homo sapiens, UniProt P27448). The format is functional.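 Also: MARK3 affinity measured as one member of a kinome panel.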
In test [23] the target is Vascular endothelial growth factor receptor 2 (Homo sapiens, UniProt P35968). The format is functional.
Test [24] addresses Tyrosine-protein kinase ABL1 (Homo sapiens, UniProt P00519). Format: functional.
The target of test [25] is Apoptotic protease-activating factor 1 (Homo sapiens, UniProt O14727). Format: functional.

This is an account of results in ChEMBL document CHEMBL1201862, “PubChem BioAssay data set” (2004).

Calls of active or inactive are those of the source.

Chain of Calcium/calmodulin-dependent protein kinase type II subunit gamma (Q13555 whole entry): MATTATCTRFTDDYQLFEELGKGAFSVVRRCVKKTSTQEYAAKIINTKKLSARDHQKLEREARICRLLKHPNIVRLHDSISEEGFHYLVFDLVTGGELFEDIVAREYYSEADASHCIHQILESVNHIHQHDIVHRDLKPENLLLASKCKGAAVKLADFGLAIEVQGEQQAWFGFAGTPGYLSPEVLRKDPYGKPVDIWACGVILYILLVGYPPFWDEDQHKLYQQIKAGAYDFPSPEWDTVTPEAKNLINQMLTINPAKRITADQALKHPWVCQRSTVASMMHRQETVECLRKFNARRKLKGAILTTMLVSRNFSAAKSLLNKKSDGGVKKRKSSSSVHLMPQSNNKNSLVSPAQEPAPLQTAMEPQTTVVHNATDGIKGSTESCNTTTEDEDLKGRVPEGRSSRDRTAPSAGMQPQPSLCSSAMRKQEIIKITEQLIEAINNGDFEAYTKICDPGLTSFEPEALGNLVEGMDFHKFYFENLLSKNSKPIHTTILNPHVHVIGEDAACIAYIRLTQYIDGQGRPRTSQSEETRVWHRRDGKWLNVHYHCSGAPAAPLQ
Chain of Tyrosine-protein kinase Lyn (P07948 whole entry): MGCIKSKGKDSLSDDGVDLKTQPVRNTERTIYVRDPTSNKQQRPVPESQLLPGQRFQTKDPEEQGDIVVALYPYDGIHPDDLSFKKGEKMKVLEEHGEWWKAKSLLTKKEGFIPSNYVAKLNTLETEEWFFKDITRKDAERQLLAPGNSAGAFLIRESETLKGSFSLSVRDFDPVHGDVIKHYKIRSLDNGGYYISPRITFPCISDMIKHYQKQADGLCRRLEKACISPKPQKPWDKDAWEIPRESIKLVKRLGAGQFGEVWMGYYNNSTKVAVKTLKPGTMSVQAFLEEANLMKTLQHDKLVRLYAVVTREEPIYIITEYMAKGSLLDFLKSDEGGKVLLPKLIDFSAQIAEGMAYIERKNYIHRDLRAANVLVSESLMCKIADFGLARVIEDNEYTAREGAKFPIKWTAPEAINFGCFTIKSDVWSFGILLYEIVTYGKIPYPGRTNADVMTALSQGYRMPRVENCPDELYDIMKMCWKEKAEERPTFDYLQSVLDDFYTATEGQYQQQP
Chain of Calcium/calmodulin-dependent protein kinase type 1 (Q14012 whole entry): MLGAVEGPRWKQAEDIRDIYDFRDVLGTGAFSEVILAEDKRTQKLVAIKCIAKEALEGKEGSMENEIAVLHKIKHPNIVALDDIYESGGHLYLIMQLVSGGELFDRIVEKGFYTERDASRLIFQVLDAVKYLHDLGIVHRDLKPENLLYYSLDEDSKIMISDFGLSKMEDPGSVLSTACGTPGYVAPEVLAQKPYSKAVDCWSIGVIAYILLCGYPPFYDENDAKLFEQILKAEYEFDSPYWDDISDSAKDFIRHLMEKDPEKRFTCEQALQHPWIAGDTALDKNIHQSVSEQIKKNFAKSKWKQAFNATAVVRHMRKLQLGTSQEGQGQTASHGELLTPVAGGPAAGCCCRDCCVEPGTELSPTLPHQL
Chain of Rho-associated protein kinase 2 (O75116 whole entry): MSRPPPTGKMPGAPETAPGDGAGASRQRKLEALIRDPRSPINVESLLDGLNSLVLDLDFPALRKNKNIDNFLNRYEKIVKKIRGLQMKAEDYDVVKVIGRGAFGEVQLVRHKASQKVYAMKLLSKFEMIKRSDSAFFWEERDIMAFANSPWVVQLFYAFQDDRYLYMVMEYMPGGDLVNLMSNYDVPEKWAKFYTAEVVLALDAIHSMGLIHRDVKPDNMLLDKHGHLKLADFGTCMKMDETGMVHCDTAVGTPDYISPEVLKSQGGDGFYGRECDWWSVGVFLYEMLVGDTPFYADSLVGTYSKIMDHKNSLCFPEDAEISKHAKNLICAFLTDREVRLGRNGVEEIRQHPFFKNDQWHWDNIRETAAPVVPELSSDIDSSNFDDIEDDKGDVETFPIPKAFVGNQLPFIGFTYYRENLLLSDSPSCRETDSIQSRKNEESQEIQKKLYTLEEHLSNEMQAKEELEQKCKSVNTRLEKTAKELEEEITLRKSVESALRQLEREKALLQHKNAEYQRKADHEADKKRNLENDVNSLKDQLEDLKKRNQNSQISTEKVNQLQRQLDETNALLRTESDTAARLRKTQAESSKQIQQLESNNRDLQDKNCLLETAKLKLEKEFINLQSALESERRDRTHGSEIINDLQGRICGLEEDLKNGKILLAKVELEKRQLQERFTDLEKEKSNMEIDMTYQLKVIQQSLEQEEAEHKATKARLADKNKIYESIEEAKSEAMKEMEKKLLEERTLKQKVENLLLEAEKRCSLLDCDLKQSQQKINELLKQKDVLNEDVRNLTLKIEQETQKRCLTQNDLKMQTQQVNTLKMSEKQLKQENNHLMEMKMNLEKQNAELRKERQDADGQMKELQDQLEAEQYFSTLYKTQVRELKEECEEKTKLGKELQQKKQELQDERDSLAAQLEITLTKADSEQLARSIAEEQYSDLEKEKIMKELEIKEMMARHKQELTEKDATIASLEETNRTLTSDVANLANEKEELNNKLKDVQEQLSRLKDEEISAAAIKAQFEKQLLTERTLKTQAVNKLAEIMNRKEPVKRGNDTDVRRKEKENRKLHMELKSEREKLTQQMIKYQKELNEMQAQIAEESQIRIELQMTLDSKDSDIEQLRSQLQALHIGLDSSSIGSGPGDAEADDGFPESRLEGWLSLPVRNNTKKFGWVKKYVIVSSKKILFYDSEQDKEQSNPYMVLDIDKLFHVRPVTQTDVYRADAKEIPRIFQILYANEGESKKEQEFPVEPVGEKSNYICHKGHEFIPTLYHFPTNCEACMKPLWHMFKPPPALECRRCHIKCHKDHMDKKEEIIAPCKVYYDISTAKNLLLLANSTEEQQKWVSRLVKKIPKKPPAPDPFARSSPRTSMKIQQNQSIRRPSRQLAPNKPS
Chain of Serine/threonine-protein kinase BRSK1 (Q8TDC3 whole entry): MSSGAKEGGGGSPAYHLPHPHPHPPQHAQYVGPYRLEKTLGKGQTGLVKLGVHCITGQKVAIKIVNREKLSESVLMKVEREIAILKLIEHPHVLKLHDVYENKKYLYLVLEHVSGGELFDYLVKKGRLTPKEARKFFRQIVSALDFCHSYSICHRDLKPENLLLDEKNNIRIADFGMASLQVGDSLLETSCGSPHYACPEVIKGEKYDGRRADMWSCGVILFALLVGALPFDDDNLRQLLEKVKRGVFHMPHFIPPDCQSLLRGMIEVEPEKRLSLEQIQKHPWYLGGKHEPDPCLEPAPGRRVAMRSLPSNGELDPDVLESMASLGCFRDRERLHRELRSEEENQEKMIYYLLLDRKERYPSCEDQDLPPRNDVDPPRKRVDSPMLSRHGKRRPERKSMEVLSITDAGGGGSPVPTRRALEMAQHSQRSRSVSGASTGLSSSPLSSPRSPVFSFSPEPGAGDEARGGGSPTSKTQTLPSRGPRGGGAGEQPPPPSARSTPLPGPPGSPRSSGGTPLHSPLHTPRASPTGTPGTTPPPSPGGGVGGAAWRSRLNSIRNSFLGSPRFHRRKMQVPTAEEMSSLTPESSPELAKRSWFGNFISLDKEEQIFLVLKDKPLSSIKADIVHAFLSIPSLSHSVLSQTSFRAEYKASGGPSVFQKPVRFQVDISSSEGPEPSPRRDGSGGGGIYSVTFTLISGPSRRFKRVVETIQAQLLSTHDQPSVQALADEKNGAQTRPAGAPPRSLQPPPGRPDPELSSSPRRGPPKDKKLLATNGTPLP
Chain of Tyrosine-protein kinase ITK/TSK (Q08881 whole entry): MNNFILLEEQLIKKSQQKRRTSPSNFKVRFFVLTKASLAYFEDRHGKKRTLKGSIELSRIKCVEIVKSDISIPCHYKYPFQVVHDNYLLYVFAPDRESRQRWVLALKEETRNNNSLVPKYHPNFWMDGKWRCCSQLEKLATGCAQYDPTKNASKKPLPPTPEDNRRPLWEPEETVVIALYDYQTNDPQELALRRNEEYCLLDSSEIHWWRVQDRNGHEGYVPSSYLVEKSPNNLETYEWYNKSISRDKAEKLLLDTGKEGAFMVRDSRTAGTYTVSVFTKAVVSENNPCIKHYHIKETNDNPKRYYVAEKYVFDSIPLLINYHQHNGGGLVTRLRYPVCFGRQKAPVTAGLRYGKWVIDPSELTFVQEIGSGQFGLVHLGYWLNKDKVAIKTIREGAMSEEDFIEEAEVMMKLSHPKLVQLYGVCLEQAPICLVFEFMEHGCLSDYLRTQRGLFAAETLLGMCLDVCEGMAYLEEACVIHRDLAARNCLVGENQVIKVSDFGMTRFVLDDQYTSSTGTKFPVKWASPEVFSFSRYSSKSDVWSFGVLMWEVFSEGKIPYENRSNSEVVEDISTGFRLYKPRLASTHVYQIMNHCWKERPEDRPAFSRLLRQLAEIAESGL
Chain of Mitogen-activated protein kinase kinase kinase 20 (Q9NYL2 whole entry): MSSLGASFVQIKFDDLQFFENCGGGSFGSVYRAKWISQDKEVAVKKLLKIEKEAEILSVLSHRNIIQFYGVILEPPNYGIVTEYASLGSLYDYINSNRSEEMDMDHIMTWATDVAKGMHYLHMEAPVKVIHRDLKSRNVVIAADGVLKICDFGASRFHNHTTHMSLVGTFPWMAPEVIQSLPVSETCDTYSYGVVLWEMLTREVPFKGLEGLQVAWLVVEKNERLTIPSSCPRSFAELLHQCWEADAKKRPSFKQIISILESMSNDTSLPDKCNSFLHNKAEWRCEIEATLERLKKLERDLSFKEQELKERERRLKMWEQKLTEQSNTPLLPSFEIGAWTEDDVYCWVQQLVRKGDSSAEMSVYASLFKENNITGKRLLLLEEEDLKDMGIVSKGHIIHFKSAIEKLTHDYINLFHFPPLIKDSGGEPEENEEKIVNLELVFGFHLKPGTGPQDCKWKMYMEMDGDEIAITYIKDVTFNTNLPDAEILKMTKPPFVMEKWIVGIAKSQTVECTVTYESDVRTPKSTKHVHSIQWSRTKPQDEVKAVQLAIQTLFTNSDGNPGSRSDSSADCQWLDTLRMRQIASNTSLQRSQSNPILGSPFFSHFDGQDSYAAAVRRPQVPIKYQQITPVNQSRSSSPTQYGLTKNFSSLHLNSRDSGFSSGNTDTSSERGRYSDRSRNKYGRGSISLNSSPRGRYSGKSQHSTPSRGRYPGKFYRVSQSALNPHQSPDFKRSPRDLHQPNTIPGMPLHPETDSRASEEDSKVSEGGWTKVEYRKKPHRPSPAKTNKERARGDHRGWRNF

Regarding `CC(/C=C1\SC(=S)N(NS(=O)(=O)c2ccc(C)cc2)C1=O)=C\c1ccccc1`, in test [1], the AC50 – broadly, the concentration at which the activity in the assay is half-maximal – was 9.98 µM (active). Also, the EC50 (as a rule, the concentration that produces a half-maximal response) in the test with Streptococcus is 8.34 µM (active); in test [2] it was 1.41 µM (active).

With `CN1CCC(c2c(O)cc(O)c3c(=O)cc(-c4ccccc4Cl)oc23)C(O)C1` (stereo not drawn), the Ki (in general, the equilibrium dissociation constant of an inhibitor or competing ligand from its target) at Insulin receptor was > 5.01 µM (inactive); in test [3], > 7.94 µM (inactive); in test [4], > 3.16 µM (inactive); in [5], > 7.94 µM (inactive); in test [6], 794 nM (active); in test [7] it was > 2 µM (inactive). Also, the Ki was > 10 µM (inactive) in [8]; > 6.31 µM (inactive) in [9]; > 7.94 µM (inactive) in test [10]; 501 nM (active) in test [11]; > 1.58 µM (inactive) in [12]; > 6.31 µM (inactive) in test [13]. The Ki in [14] was > 1.58 µM (inactive); in test [15], > 1.58 µM (inactive); in [16] it was > 2 µM (inactive); in test [17], 1 µM (active); in [18] it was 251 nM (active); in test [19] it was 1.26 µM (active). Further, the figures for the Ki in test [20], in test [21] and in test [22] were > 2 µM (inactive), 1 µM (active) and > 6.31 µM (inactive), respectively. Besides, the pKi (usually the negative decadic logarithm of the Ki, by convention in mol/L) in [21] came to 6.

With `COc1ccc(C2=NNc3cccc4c(OC)ccc2c34)cc1OC`, the Ki in [23] and in test [24] was > 2.51 µM (inactive) in each case.

Regarding `Cc1ccc(NC2=C(NCCO)C(=O)c3ccccc3C2=O)cc1`, the IC50 (in general, the concentration that inhibits the measured activity by half) in test [25] is 15.7 µM (active).
